Laboratory results taken from patent US11566057B2, “Long-acting co-agonists of the glucagon and GLP-1 receptors” (Merck Sharp & Dohme Corp., priority 2017, dated 2023).
Numbered stars: 1 amine (or outer) side, 2 acyl side, 3 side chain; on linkers, the order of the positions; unused ones are H or OH. Square brackets hold non-standard residues; d marks the D form. Side chains are listed from the residue outwards. Peptide text beside a SMILES is read from it. * marks the point of attachment. C16 diacid = O=C(O)CCCCCCCCCCCCCCC(=O)*; γGlu = O=C(O)[C@H](CCC(=O)[*:2])N[*:1]; Met(O2) = CS(=O)(=O)CC[C@H](N)C(=O)O; AEEA = NCCOCCOCC(=O)O; Aib = CC(C)(N)C(=O)O

Key:
human GCGR = biological target: T1, human GCGR (Homo sapiens, UniProt P47871); test: cAMP activity assay at the Glucagon receptor (GCGR); assay type: cell-based; settings: for hGCGR/hGLP1R (hTone): ratio of GCGR EC50 to GLP1R EC50; for EC50: summary statement: EC50 at each of the glucagon and GLP-1 receptors, read-out: EC50 at the glucagon receptor
T1 construct: expressed in transfected cells; growth medium holds Blasticidin and Hygromycin
T1 sequence (P47871 26-477): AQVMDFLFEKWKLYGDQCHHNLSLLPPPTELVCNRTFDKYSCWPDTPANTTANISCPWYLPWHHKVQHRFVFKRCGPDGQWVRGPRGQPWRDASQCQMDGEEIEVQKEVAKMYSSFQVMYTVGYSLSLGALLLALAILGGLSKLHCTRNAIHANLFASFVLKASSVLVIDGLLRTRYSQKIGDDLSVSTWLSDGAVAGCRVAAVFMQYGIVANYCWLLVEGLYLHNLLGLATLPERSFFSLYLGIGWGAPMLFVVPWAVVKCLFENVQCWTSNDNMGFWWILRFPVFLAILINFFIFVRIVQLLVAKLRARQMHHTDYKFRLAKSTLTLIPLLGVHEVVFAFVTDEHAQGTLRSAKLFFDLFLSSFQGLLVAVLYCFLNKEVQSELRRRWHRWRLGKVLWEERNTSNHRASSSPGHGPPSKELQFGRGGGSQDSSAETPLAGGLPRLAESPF
Outline: (§1)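 Peptides serially diluted from DMSO (10 points) and added to frozen-stock cells bearing human GLP1R (10,000 cells/well) or GCGR (30,000 cells/well), 1 h at RT, dark. EC50 by four-parameter logistic fit of HitHunter cAMPXS luminescence, read following overnight RT incubation.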

human GLP1R = biological target: T2, human GLP1R (Homo sapiens, UniProt P43220); test: cAMP activity assay at the GLP-1 receptor (GLP1R); assay type: cell-based; settings: summary statement: EC50 at each of the glucagon and GLP-1 receptors; read-out: EC50 at the GLP-1 receptor
T2 construct: expressed in transfected cells; growth medium holds Blasticidin and Hygromycin
T2 sequence (P43220 24-463): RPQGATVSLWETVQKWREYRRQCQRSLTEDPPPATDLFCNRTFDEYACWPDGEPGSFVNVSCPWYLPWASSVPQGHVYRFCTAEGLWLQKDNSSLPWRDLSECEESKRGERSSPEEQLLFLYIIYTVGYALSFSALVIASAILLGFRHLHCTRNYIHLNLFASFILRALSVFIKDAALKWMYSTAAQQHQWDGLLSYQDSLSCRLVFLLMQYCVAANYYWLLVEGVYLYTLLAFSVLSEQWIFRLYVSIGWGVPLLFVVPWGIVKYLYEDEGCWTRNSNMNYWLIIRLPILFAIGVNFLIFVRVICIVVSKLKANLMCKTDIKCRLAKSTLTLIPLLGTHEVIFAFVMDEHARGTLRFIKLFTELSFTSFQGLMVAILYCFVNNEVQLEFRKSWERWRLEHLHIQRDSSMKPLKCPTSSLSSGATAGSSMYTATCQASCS
Outline: as §1

CC(C)C[C@H](NC(=O)[C@H](Cc1ccc(O)cc1)NC(=O)[C@H](CCCCN)NC(=O)[C@H](CO)NC(=O)[C@H](Cc1ccc(O)cc1)NC(=O)[C@H](CC(=O)O)NC(=O)[C@H](CO)NC(=O)[C@@H](NC(=O)[C@H](Cc1ccccc1)NC(=O)[C@@H](NC(=O)CNC(=O)[C@H](CCC(N)=O)NC(=O)C(C)(C)NC(=O)[C@@H](N)Cc1c[nH]cn1)[C@@H](C)O)[C@@H](C)O)C(=O)N[C@@H](CC(=O)O)C(=O)N[C@@H](C)C(=O)N[C@@H](CCCNC(=N)N)C(=O)N[C@@H](C)C(=O)N[C@@H](C)C(=O)N[C@@H](CCCCNC(=O)COCCOCCNC(=O)COCCOCCNC(=O)CC[C@H](NC(=O)CCCCCCCCCCCCCCC(=O)O)C(=O)O)C(=O)N[C@@H](CC(=O)O)C(=O)N[C@@H](Cc1ccccc1)C(=O)N[C@H](C(=O)N[C@@H](CCC(N)=O)C(=O)N[C@@H](Cc1c[nH]c2ccccc12)C(=O)N[C@@H](CC(C)C)C(=O)N[C@@H](CCS(C)(=O)=O)C(=O)N[C@@H](CCC(=O)O)C(=O)N[C@H](C(N)=O)[C@@H](C)O)C(C)C [TP814] (H-H[Aib]QGTFTSDYSKYLDARAAK([AEEA-AEEA-γGlu-C16 diacid])DFVQWL[Met(O2)]ET-NH2; N-terminus assumed)
hGCGR/hGLP1R (hTone) (human GCGR): 2.0 | EC50 (human GCGR): < 5 nM | EC50 (human GLP1R): < 5 nM

CC(C)C[C@H](NC(=O)[C@H](Cc1c[nH]c2ccccc12)NC(=O)[C@H](CCCCNC(=O)COCCOCCNC(=O)COCCOCCNC(=O)CC[C@H](NC(=O)CCCCCCCCCCCCCCC(=O)O)C(=O)O)NC(=O)[C@@H](NC(=O)[C@H](Cc1ccccc1)NC(=O)[C@H](CC(=O)O)NC(=O)[C@H](CCC(N)=O)NC(=O)[C@H](C)NC(=O)[C@H](C)NC(=O)[C@H](CCCNC(=N)N)NC(=O)C(C)(C)NC(=O)[C@H](CC(=O)O)NC(=O)[C@H](CC(C)C)NC(=O)[C@H](Cc1ccc(O)cc1)NC(=O)[C@H](CCCCN)NC(=O)[C@H](CO)NC(=O)[C@H](Cc1ccc(O)cc1)NC(=O)[C@H](CC(=O)O)NC(=O)[C@H](CO)NC(=O)[C@@H](NC(=O)[C@H](Cc1ccccc1)NC(=O)[C@@H](NC(=O)CNC(=O)[C@H](CCC(N)=O)NC(=O)C(C)(C)NC(=O)[C@@H](N)Cc1c[nH]cn1)[C@@H](C)O)[C@@H](C)O)C(C)C)C(=O)N[C@@H](CCS(C)(=O)=O)C(=O)N[C@@H](CCC(=O)O)C(=O)N[C@H](C(N)=O)[C@@H](C)O [TP815] (H-H[Aib]QGTFTSDYSKYLD[Aib]RAAQDFVK([AEEA-AEEA-γGlu-C16 diacid])WL[Met(O2)]ET-NH2)
hGCGR/hGLP1R (hTone) (human GCGR): 0.7 | EC50 (human GCGR): < 5 nM | EC50 (human GLP1R): < 5 nM

CC(C)C[C@H](NC(=O)[C@H](Cc1ccc(O)cc1)NC(=O)[C@H](CCCCN)NC(=O)[C@H](CO)NC(=O)[C@H](Cc1ccc(O)cc1)NC(=O)[C@H](CC(=O)O)NC(=O)[C@H](CO)NC(=O)[C@@H](NC(=O)[C@H](Cc1ccccc1)NC(=O)[C@@H](NC(=O)CNC(=O)[C@H](CCC(N)=O)NC(=O)C(C)(C)NC(=O)[C@@H](N)Cc1c[nH]cn1)[C@@H](C)O)[C@@H](C)O)C(=O)N[C@@H](CC(=O)O)C(=O)N[C@@H](C)C(=O)N[C@@H](CCCNC(=N)N)C(=O)N[C@@H](C)C(=O)N[C@@H](C)C(=O)N[C@@H](CCC(N)=O)C(=O)N[C@@H](CCCCNC(=O)COCCOCCNC(=O)COCCOCCNC(=O)CC[C@H](NC(=O)CCCCCCCCCCCCCCC(=O)O)C(=O)O)C(=O)N[C@@H](Cc1ccccc1)C(=O)N[C@H](C(=O)N[C@@H](CCC(N)=O)C(=O)N[C@@H](Cc1c[nH]c2ccccc12)C(=O)N[C@@H](CC(C)C)C(=O)N[C@@H](CCS(C)(=O)=O)C(=O)N[C@@H](CCC(=O)O)C(=O)N[C@H](C(N)=O)[C@@H](C)O)C(C)C [TP825] (H-H[Aib]QGTFTSDYSKYLDARAAQK([AEEA-AEEA-γGlu-C16 diacid])FVQWL[Met(O2)]ET-NH2; N-terminus assumed)
hGCGR/hGLP1R (hTone) (human GCGR): 2.0 | EC50 (human GCGR): < 5 nM | EC50 (human GLP1R): < 5 nM

CC(C)C[C@H](NC(=O)[C@H](Cc1ccc(O)cc1)NC(=O)[C@H](CCCCN)NC(=O)[C@H](CO)NC(=O)[C@H](Cc1ccc(O)cc1)NC(=O)[C@H](CC(=O)O)NC(=O)[C@H](CO)NC(=O)[C@@H](NC(=O)[C@H](Cc1ccccc1)NC(=O)[C@@H](NC(=O)CNC(=O)[C@H](CCC(N)=O)NC(=O)C(C)(C)NC(=O)[C@@H](N)Cc1c[nH]cn1)[C@@H](C)O)[C@@H](C)O)C(=O)N[C@@H](CC(=O)O)C(=O)N[C@@H](C)C(=O)N[C@@H](CCCNC(=N)N)C(=O)N[C@@H](C)C(=O)N[C@@H](C)C(=O)N[C@@H](CCCCNC(=O)COCCOCCNC(=O)COCCOCCNC(=O)CC[C@H](NC(=O)CCCCCCCCCCCCCCC(=O)O)C(=O)O)C(=O)N[C@@H](CC(=O)O)C(=O)N[C@@H](Cc1ccccc1)C(=O)N[C@H](C(=O)N[C@@H](CCC(N)=O)C(=O)N[C@@H](Cc1c[nH]c2ccccc12)C(=O)N[C@@H](CC(C)C)C(=O)N[C@@H](CCS(C)(=O)=O)C(=O)N[C@@H](CCC(=O)N[C@H](C(N)=O)[C@@H](C)O)C(=O)O)C(C)C [TP826] (H-H[Aib]QGTFTSDYSKYLDARAAK([AEEA-AEEA-γGlu-C16 diacid])DFVQWL[Met(O2)][γGlu]T-NH2)
hGCGR/hGLP1R (hTone) (human GCGR): 2.7 | EC50 (human GCGR): < 5 nM | EC50 (human GLP1R): < 5 nM

CC(C)C[C@H](NC(=O)[C@H](Cc1ccc(O)cc1)NC(=O)[C@H](CCCCN)NC(=O)[C@H](CO)NC(=O)[C@H](Cc1ccc(O)cc1)NC(=O)[C@H](CC(=O)O)NC(=O)[C@H](CO)NC(=O)[C@@H](NC(=O)[C@H](Cc1ccccc1)NC(=O)[C@@H](NC(=O)CNC(=O)[C@H](CCC(N)=O)NC(=O)C(C)(C)NC(=O)[C@@H](N)Cc1c[nH]cn1)[C@@H](C)O)[C@@H](C)O)C(=O)N[C@@H](CC(=O)O)C(=O)N[C@@H](C)C(=O)N[C@@H](CCCNC(=N)N)C(=O)N[C@@H](C)C(=O)N[C@@H](C)C(=O)N[C@@H](CCC(N)=O)C(=O)N[C@@H](CCCCNC(=O)COCCOCCNC(=O)COCCOCCNC(=O)CC[C@H](NC(=O)CCCCCCCCCCCCCCC(=O)O)C(=O)O)C(=O)N[C@@H](Cc1ccccc1)C(=O)N[C@H](C(=O)N[C@@H](CCC(N)=O)C(=O)N[C@@H](Cc1c[nH]c2ccccc12)C(=O)N[C@@H](CC(C)C)C(=O)N[C@@H](CCS(C)(=O)=O)C(=O)N[C@@H](CCC(=O)N[C@H](C(N)=O)[C@@H](C)O)C(=O)O)C(C)C [TP827] (H-H[Aib]QGTFTSDYSKYLDARAAQK([AEEA-AEEA-γGlu-C16 diacid])FVQWL[Met(O2)][γGlu]T-NH2)
hGCGR/hGLP1R (hTone) (human GCGR): 1.6 | EC50 (human GCGR): < 5 nM | EC50 (human GLP1R): < 5 nM

CC(C)C[C@H](NC(=O)[C@H](Cc1c[nH]c2ccccc12)NC(=O)[C@H](CCCCNC(=O)COCCOCCNC(=O)COCCOCCNC(=O)CC[C@H](NC(=O)CCCCCCCCCCCCCCC(=O)O)C(=O)O)NC(=O)[C@@H](NC(=O)[C@H](Cc1ccccc1)NC(=O)[C@H](CC(=O)O)NC(=O)[C@H](CCC(N)=O)NC(=O)[C@H](C)NC(=O)[C@H](C)NC(=O)[C@H](CCCNC(=N)N)NC(=O)C(C)(C)NC(=O)[C@H](CC(=O)O)NC(=O)[C@H](CC(C)C)NC(=O)[C@H](Cc1ccc(O)cc1)NC(=O)[C@H](CCCCN)NC(=O)[C@H](CO)NC(=O)[C@H](Cc1ccc(O)cc1)NC(=O)[C@H](CC(=O)O)NC(=O)[C@H](CO)NC(=O)[C@@H](NC(=O)[C@H](Cc1ccccc1)NC(=O)[C@@H](NC(=O)CNC(=O)[C@H](CCC(N)=O)NC(=O)C(C)(C)NC(=O)[C@@H](N)Cc1c[nH]cn1)[C@@H](C)O)[C@@H](C)O)C(C)C)C(=O)N[C@@H](CCS(C)(=O)=O)C(=O)N[C@@H](CCC(=O)N[C@H](C(N)=O)[C@@H](C)O)C(=O)O [TP828] (H-H[Aib]QGTFTSDYSKYLD[Aib]RAAQDFVK([AEEA-AEEA-γGlu-C16 diacid])WL[Met(O2)][γGlu]T-NH2)
hGCGR/hGLP1R (hTone) (human GCGR): 0.4 | EC50 (human GCGR): < 5 nM | EC50 (human GLP1R): < 5 nM
